Experimental findings from PMC10174618, “Monoterpenoid aryl hydrocarbon receptor allosteric antagonists protect against ultraviolet skin damage in female mice” (Nature Communications, 2023) are described below.

What all share (experiment): biochemical
Common to all, as to parameters: KINOMEscan scanMAX active site-directed competition binding assay, percent of control, 468 kinases
Holding throughout (settings): competition binding, percent of control

One test concerns the target MET (Homo sapiens, UniProt P08581). Summed up: (§1)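 Single-concentration screen (100 μM S-carvone) in a competition binding panel of 468 human kinases (KINOMEscan scanMAX); results given as percent of control, hit cutoff 35%.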
The target of another test is PRKCI (Homo sapiens, UniProt P41743). In short, it runs like this: as §1
The target of another test is FGFR1 (Homo sapiens, UniProt P11362). Summed up: as §1
The next test addresses MET(M1250T) (Homo sapiens, UniProt P08581, M1250T). In short, it runs like this: as §1
A further test has as its target GAK (Homo sapiens, UniProt O14976). Summed up:
as §1

The next test concerns the target PIP5K1C (Homo sapiens, UniProt O60331). Summed up:
as §1

The target in another test is EGFR(L858R,T790M) (Homo sapiens, UniProt P00533, L858R/T790M). In short, it runs like this:
as §1

A further test deals with PLK2 (Homo sapiens, UniProt Q9NYY3). In short, it runs like this: as §1
Another test addresses HASPIN (Homo sapiens, UniProt Q8TF76). Summed up: as §1
In a further test the target is CSF1R (Homo sapiens, UniProt P07333). In short, it runs like this: as §1
The target in the next test is CAMK4 (Homo sapiens, UniProt Q16566). Summed up: as §1
The target of another test is T1, IKK-alpha (Homo sapiens, UniProt O15111).
T1 construct: gene CHUK
In short, it runs like this: as §1

A further test deals with PIP5K1A (Homo sapiens, UniProt Q99755). In short, it runs like this: as §1
The target in another test is SGK3 (Homo sapiens, UniProt Q96BR1). Summed up: as §1
The next test addresses CDKL5 (Homo sapiens, UniProt O76039). In short, it runs like this:
as §1

A further test deals with T2, ERK2 (Homo sapiens, UniProt P28482).
T2 construct: gene MAPK1
Summed up:
as §1

For the next test, the target named is T3, ICK (Homo sapiens, UniProt Q9UPZ9).
T3 construct: gene CILK1
Summed up: as §1

The target of a further test is PRKCD (Homo sapiens, UniProt Q05655). Summed up: as §1
A further test concerns the target TESK1 (Homo sapiens, UniProt Q15569). Summed up:
as §1

Test [1] concerns the target T4, ABL1(H396P)-phosphorylated (Homo sapiens, UniProt P00519, H396P).
T4 construct: phosphorylated
Summed up: as §1

The target in a further test is TSSK1B (Homo sapiens, UniProt Q9BXA7). Summed up: as §1
Another test deals with GRK1 (Homo sapiens, UniProt Q15835). In short, it runs like this:
as §1

Sequence of MET(M1250T) (P08581 whole entry M1250T): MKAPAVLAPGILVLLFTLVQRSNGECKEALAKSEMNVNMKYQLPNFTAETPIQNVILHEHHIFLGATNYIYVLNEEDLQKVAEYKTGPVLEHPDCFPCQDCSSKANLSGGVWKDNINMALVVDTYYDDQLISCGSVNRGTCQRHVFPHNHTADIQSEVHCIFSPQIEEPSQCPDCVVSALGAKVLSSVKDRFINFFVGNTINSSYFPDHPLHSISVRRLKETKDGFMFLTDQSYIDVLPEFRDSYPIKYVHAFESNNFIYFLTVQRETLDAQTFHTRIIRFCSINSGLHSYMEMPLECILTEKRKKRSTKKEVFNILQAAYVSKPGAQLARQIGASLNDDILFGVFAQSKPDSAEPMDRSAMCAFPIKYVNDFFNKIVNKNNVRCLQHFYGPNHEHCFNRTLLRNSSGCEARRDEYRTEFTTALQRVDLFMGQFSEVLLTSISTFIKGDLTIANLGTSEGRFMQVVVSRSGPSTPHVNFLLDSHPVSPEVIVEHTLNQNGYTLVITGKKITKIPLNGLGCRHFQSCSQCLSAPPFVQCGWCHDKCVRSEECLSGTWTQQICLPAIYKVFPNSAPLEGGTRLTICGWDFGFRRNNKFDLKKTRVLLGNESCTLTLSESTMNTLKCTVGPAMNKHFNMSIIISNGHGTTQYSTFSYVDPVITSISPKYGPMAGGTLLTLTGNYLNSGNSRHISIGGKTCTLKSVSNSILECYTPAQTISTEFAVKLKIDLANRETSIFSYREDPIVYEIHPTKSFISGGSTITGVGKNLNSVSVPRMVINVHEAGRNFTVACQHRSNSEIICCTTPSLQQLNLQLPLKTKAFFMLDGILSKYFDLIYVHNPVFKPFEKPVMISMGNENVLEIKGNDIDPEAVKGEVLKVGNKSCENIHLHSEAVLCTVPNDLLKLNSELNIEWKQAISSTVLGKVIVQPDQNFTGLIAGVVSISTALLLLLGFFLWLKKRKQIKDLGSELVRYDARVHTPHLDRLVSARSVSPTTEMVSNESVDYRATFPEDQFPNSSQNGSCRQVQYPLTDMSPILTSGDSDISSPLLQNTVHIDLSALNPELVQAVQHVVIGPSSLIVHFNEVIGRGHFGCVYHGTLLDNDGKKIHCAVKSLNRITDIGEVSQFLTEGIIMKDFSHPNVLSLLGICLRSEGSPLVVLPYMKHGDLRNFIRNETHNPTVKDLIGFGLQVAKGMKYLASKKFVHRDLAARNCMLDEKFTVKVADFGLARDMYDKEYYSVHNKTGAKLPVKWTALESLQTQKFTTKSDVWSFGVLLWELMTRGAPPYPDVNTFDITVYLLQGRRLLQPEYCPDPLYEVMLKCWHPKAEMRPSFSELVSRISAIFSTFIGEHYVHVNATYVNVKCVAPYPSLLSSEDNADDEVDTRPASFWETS
Sequence of MET (P08581 whole entry): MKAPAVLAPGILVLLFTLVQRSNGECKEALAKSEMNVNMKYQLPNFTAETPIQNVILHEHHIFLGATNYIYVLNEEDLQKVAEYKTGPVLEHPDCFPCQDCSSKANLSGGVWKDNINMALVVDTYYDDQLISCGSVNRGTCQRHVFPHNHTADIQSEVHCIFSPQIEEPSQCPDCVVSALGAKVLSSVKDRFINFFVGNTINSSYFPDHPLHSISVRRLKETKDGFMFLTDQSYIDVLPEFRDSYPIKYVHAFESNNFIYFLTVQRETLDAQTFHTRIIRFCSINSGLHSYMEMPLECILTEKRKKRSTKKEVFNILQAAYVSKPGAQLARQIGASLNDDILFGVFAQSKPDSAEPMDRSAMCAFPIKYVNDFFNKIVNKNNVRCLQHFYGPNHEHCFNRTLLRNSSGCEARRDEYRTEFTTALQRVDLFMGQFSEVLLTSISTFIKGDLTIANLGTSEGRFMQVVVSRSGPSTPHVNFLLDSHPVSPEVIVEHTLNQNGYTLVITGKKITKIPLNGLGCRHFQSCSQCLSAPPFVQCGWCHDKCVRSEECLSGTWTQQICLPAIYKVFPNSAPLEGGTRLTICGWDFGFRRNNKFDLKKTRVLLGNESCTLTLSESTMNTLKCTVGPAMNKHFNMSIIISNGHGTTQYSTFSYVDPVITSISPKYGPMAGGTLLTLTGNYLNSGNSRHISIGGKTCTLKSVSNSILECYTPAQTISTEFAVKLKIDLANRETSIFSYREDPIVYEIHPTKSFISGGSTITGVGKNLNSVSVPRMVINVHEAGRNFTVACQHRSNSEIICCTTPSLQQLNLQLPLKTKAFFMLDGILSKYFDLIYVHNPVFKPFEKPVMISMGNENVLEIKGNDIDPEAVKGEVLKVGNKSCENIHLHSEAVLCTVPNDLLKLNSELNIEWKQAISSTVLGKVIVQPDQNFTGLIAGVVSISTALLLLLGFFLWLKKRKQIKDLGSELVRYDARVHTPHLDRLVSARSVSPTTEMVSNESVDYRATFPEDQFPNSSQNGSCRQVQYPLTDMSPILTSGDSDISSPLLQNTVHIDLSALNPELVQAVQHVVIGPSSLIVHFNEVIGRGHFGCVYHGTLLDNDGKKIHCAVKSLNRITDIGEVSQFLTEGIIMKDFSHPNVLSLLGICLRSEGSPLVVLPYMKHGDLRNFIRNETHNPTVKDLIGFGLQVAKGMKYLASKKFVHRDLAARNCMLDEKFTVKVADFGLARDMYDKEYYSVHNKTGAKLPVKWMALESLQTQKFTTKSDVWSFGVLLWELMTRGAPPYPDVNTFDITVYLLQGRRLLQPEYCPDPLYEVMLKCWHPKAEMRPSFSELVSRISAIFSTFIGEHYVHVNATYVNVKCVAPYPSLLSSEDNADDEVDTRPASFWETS
Sequence of GAK (O14976 whole entry): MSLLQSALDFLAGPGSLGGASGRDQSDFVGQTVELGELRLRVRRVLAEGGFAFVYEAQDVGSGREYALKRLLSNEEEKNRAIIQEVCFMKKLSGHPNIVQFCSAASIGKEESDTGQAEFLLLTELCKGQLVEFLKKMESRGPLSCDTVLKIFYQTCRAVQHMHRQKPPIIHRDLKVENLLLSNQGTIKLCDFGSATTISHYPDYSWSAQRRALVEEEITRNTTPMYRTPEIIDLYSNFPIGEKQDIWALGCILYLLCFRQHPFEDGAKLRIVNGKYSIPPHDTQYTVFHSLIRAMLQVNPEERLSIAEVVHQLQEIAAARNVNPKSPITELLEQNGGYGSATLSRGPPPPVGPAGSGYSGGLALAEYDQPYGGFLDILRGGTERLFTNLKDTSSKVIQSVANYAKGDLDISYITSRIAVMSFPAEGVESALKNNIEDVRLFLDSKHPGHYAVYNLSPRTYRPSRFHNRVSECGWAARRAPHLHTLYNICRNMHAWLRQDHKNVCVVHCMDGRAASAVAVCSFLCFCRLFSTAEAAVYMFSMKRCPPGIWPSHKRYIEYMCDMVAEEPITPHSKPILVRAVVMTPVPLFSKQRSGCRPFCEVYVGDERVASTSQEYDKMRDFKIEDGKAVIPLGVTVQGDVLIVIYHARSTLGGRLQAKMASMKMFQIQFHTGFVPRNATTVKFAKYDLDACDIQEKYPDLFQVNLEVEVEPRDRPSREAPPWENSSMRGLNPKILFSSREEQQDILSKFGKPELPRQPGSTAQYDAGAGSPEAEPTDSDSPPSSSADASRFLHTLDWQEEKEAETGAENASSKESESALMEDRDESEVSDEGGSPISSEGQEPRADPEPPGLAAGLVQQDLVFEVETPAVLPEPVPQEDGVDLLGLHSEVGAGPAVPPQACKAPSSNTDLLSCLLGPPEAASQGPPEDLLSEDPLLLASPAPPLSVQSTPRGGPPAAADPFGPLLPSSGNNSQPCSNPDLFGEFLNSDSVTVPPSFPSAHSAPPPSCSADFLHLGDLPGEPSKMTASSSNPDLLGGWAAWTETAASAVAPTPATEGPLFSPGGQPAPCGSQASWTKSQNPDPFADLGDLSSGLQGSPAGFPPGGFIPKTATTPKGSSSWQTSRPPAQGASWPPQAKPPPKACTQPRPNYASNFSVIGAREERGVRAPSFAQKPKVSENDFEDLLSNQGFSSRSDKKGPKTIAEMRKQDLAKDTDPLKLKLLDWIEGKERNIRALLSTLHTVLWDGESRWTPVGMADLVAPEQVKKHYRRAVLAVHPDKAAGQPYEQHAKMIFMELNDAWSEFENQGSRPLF
Sequence of CDKL5 (O76039 whole entry): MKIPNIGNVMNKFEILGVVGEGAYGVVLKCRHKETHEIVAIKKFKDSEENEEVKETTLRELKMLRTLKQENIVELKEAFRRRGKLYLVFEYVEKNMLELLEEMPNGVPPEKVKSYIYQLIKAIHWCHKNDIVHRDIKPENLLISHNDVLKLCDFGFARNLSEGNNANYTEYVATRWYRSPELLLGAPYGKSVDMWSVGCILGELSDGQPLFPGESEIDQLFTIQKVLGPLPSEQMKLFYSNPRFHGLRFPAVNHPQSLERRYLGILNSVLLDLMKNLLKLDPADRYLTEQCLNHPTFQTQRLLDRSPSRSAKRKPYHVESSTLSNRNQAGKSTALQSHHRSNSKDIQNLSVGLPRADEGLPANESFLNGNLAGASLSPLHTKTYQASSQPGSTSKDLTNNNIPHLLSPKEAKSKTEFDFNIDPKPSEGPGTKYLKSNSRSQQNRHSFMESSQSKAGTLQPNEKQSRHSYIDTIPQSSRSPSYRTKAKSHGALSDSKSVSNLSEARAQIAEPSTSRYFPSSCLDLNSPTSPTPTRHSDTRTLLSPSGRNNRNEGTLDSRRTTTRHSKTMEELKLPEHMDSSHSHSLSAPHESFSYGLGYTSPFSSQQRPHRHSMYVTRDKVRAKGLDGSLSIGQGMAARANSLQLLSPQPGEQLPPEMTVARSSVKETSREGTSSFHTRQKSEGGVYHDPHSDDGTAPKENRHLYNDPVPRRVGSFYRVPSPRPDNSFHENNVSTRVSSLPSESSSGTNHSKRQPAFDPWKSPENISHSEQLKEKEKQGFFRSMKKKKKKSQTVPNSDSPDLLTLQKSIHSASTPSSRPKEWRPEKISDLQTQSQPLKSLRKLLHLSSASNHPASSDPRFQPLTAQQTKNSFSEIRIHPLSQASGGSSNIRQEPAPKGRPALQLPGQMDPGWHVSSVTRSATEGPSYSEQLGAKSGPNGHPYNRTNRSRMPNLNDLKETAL

As for `C=C(C)[C@H]1CC=C(C)C(=O)C1` [S-carvone], the remaining binding at 100 µM at MET was 90%; on PRKCI, 72%; at FGFR1, 92%; at MET(M1250T) it was 73%; at GAK, 83%; on PIP5K1C, 100%. Also, the remaining binding at 100 µM at EGFR(L858R,T790M) stood at 60%; on PLK2, 68%; on HASPIN, 74%; at CSF1R it was 86%; at CAMK4, 70%; at IKK-alpha, 72%. Moreover, the remaining binding at 100 µM worked out at 98% at PIP5K1A; 81% at SGK3; 96% on CDKL5; 76% on ERK2; 97% at ICK; 90% on PRKCD. Further, the remaining binding at 100 µM on TESK1 came out at 79%; in test [1] it was 65%; on TSSK1B it was 95%; at GRK1 it was 74%.
